Source: ChEMBL document CHEMBL1212926, “Design of potent inhibitors of human RAD51 recombinase based on BRC motifs of BRCA2 protein: modeling and experimental validation of a chimera peptide” (J Med Chem, 2010)
Active and inactive are the calls of the source. No cut-off for these calls is given here. Where a SMILES comes first, the peptide text is derived from it.

Key:
[1] = target: T1, DNA repair protein RAD51 homolog 1 (Homo sapiens) (UniProt Q06609); assay: Inhibition of human RAD51-mediated 58-mer single-stranded DNA strand exchange activity at 5 to 15 uM after 1 hr by PAGE
T1 sequence (whole entry): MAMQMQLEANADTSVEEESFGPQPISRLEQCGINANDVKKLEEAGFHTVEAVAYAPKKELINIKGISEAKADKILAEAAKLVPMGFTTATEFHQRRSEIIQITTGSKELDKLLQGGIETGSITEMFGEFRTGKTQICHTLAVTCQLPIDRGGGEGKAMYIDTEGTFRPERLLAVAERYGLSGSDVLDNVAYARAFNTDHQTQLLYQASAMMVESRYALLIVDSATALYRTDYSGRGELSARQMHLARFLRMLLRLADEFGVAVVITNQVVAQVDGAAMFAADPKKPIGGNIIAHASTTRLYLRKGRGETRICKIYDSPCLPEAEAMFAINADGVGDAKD

[2] = target: T1, DNA repair protein RAD51 homolog 1 (Homo sapiens); assay: Binding affinity to human RAD51 at 40 uM by circular dichroism assay
[3] = target: T1, DNA repair protein RAD51 homolog 1 (Homo sapiens); assay: Binding affinity to human RAD51 by isothermal titration calorimetry
[4] = target: T2, DNA repair protein RAD51 homolog 1 (Homo sapiens, UniProt Q06609); assay: Inhibition of human RAD51 assessed as concentration required for half dissociation of protein/single-stranded DNA complex formation by fluorescence polarimetry
T2 sequence (Q06609 whole entry): T1 sequence (whole entry)

[5] = target: T2, DNA repair protein RAD51 homolog 1; assay: Inhibition of human RAD51 assessed as dissociation of protein/single-stranded poly-(d-epsilonA) complex formation by fluorescence polarimetry
[6] = target: T2, DNA repair protein RAD51 homolog 1; assay: Inhibition of human RAD51 assessed as dissociation of protein/single-stranded oligo(AGT)12 complex formation by fluorescence polarimetry

Question: What does the source list for `CC[C@H](C)[C@H](NC(=O)[C@H](CCCCN)NC(=O)[C@@H](NC(=O)[C@H](CCCCN)NC(=O)[C@H](CCCCN)NC(=O)CNC(=O)[C@H](CO)NC(=O)[C@H](CO)NC(=O)[C@@H](NC(=O)[C@H](Cc1cnc[nH]1)NC(=O)[C@H](Cc1ccccc1)NC(=O)CN)[C@@H](C)O)C(C)C)C(=O)N[C@@H](C)C(=O)N[C@@H](CCCCN)C(=O)N[C@@H](CCC(=O)O)C(=O)N[C@@H](CO)C(=O)N[C@@H](CC(C)C)C(=O)N[C@@H](CC(=O)O)C(=O)N[C@@H](CCCCN)C(=O)N[C@H](C(=O)N[C@@H](CCCCN)C(=O)N[C@@H](CC(N)=O)C(=O)N[C@@H](CC(C)C)C(=O)N[C@@H](Cc1ccccc1)C(=O)O)C(C)C`?
Answer: inhibition [1]: Active; Activity [2]: Active; K [3]: < 0.1 ×10⁵ /M

Question: Which results are given for `CC[C@H](C)[C@H](NC(=O)[C@H](CCCCN)NC(=O)[C@@H](NC(=O)[C@H](CCCCN)NC(=O)[C@H](CCCCN)NC(=O)CNC(=O)[C@H](CO)NC(=O)[C@H](C)NC(=O)[C@@H](NC(=O)[C@H](Cc1cnc[nH]1)NC(=O)[C@H](Cc1ccccc1)NC(=O)CN)[C@@H](C)O)C(C)C)C(=O)N[C@@H](CO)C(=O)N[C@@H](CCCCN)C(=O)N[C@@H](CCC(=O)O)C(=O)N[C@@H](CO)C(=O)N[C@@H](CC(C)C)C(=O)N[C@@H](CC(=O)O)C(=O)N[C@@H](CCCCN)C(=O)N[C@H](C(=O)N[C@@H](CCCCN)C(=O)N[C@@H](CC(N)=O)C(=O)N[C@@H](CC(C)C)C(=O)N[C@@H](Cc1ccccc1)C(=O)O)C(C)C`?
Answer: inhibition [1]: Active; Ki [4]: 1800 nM; IC50 [5]: 2500 nM; IC50 [6]: 2000 nM; Activity [2]: Active; K [3]: 5.2 ×10⁵ /M

Question: For `CC[C@H](C)[C@H](NC(=O)[C@H](CCCCN)NC(=O)[C@@H](NC(=O)[C@H](CCCCN)NC(=O)[C@H](CCCCN)NC(=O)CNC(=O)[C@H](CO)NC(=O)[C@H](C)NC(=O)[C@@H](NC(=O)[C@@H](N)Cc1cnc[nH]1)[C@@H](C)O)C(C)C)C(=O)N[C@@H](C)C(=O)N[C@@H](CCCCN)C(=O)N[C@@H](CCC(=O)O)C(=O)N[C@@H](CO)C(=O)N[C@@H](CC(C)C)C(=O)N[C@@H](CC(=O)O)C(=O)N[C@@H](CCCCN)C(=O)N[C@H](C(=O)N[C@@H](CCCCN)C(=O)N[C@@H](CC(N)=O)C(=O)N[C@@H](CC(C)C)C(=O)N[C@@H](Cc1ccccc1)C(=O)N[C@@H](CC(=O)O)C(=O)N[C@@H](CCC(=O)O)C(=O)O)C(C)C` (H-HTASGKKVKIAKESLDKVKNLFDE-OH), which Activity [2] is on record?
Answer: Active

Question: With `CC[C@H](C)[C@H](NC(=O)[C@H](CCCCN)NC(=O)[C@@H](NC(=O)[C@H](CCCCN)NC(=O)[C@H](CCCCN)NC(=O)CNC(=O)[C@H](CO)NC(=O)[C@H](C)NC(=O)[C@@H](NC(=O)[C@H](Cc1ccc(O)cc1)NC(=O)[C@H](Cc1ccccc1)NC(=O)CN)[C@@H](C)O)C(C)C)C(=O)N[C@@H](CO)C(=O)N[C@@H](CCCCN)C(=O)N[C@@H](CCC(=O)O)C(=O)N[C@@H](CO)C(=O)N[C@@H](CC(C)C)C(=O)N[C@@H](CC(=O)O)C(=O)N[C@@H](CCCCN)C(=O)N[C@H](C(=O)N[C@@H](CCCCN)C(=O)N[C@@H](CC(N)=O)C(=O)N[C@@H](Cc1ccccc1)C(=O)N[C@@H](Cc1ccccc1)C(=O)O)C(C)C` (H-GFYTASGKKVKISKESLDKVKNFF-OH) as the compound, how does the inhibition [1] read?
Answer: Active

Question: What about the Ki [4] of the same compound?
Answer: 750 nM

Question: And the IC50 [5]?
Answer: 1500 nM

Question: And the IC50 [6]?
Answer: 1050 nM

Question: What does the source list for `CC[C@H](C)[C@H](NC(=O)[C@H](CCCCN)NC(=O)[C@@H](NC(=O)[C@H](CCCCN)NC(=O)[C@H](CCCCN)NC(=O)CNC(=O)[C@H](CO)NC(=O)[C@H](C)NC(=O)[C@@H](NC(=O)[C@H](Cc1ccc(O)cc1)NC(=O)[C@H](Cc1ccccc1)NC(=O)CN)[C@@H](C)O)C(C)C)C(=O)N[C@@H](C)C(=O)N[C@@H](CCCCN)C(=O)N[C@@H](CCC(=O)O)C(=O)N[C@@H](CO)C(=O)N[C@@H](CC(C)C)C(=O)N[C@@H](CC(=O)O)C(=O)N[C@@H](CCCCN)C(=O)N[C@H](C(=O)N[C@@H](CCCCN)C(=O)N[C@@H](CC(N)=O)C(=O)N[C@@H](CC(C)C)C(=O)N[C@@H](Cc1ccccc1)C(=O)O)C(C)C`?
Answer: inhibition [1]: Active; Ki [4]: 6000 nM; IC50 [5]: 7000 nM; IC50 [6]: 2700 nM; Activity [2]: Active; K [3]: 3.8 ×10⁵ /M

Question: How did the inhibition [1] turn out when `CC[C@H](C)[C@H](NC(=O)[C@H](CCCCN)NC(=O)[C@@H](NC(=O)[C@H](CCCCN)NC(=O)[C@H](CCCCN)NC(=O)CNC(=O)[C@H](CO)NC(=O)[C@H](C)NC(=O)[C@@H](NC(=O)[C@H](Cc1cnc[nH]1)NC(=O)[C@H](Cc1ccccc1)NC(=O)CN)[C@@H](C)O)C(C)C)C(=O)N[C@@H](C)C(=O)N[C@@H](CCCCN)C(=O)N[C@@H](CCC(=O)O)C(=O)N[C@@H](CO)C(=O)N[C@@H](CC(C)C)C(=O)N[C@@H](CC(=O)O)C(=O)N[C@@H](CCCCN)C(=O)N[C@H](C(=O)N[C@@H](CCCCN)C(=O)N[C@@H](CC(N)=O)C(=O)N[C@@H](Cc1ccccc1)C(=O)N[C@@H](Cc1ccccc1)C(=O)O)C(C)C` was run?
Answer: Active

Question: What about the Ki [4] of the same compound?
Answer: 4200 nM

Question: What about the IC50 [5] of the same compound?
Answer: 5000 nM

Question: What about the IC50 [6] of the same compound?
Answer: 2600 nM

Question: And the Activity [2]?
Answer: Active

Question: And the K [3]?
Answer: 7.3 ×10⁵ /M
